Measurements taken from US20230286968A1, “ARYLOXAZOLO SPIRAL RING DERIVATIVES FOR THE TREATMENT AND PROPHYLAXIS OF HEPATITIS B VIRUS INFECTION” (Hoffmann-La Roche Inc., priority 2020, published 2023).

Columns and labels:
HBsAg = assay: PHH natural infection assay, HBsAg (alphalisa); type: cell-based, HBV; settings: Hepatitis B virus, Hepatocyte, read-out: HBsAg IC50, HBV-infected primary human hepatocytes, supernatant, alphalisa
Outline: (§1)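 Cryopreserved PHH plated 24 h, infected with HBV at 200 GE/cell plus 4% PEG8000 for 24 h, then sandwich-cultured 72 h with 0.25 mg/mL matrix gel. Compounds at varied concentrations applied twice at 72-h intervals. Supernatant HBsAg and HBeAg measured by AlphaLISA with specific antibodies.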

HBeAg = assay: PHH natural infection assay, HBeAg (alphalisa); type: cell-based, HBV; settings: Hepatitis B virus, Hepatocyte, read-out: HBeAg IC50, HBV-infected primary human hepatocytes, supernatant, alphalisa
Outline: as §1

[1] = Cytotoxicity in PHH natural infection assay (Cell Counting Kit-8); type: cell-based; settings: HBV-infected primary human hepatocytes, CCK8
Outline: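 HBV-infected primary human hepatocytes (200 GE/cell, 4% PEG8000, 24 h), sandwich-cultured 72 h, then given compound-containing medium twice at 72 h intervals. Cytotoxicity read by CCK-8 at end of treatment.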

## O=C(NC1CC2(C1)CC(c1nc3cc(Cl)ccc3o1)C2)N1CCCC1 (stereo not drawn) [Example 66, N-[6-(5-chloro-1,3-benzoxazol-2-yl)spiro[3.3]heptan-2-yl]pyrrolidine-1-carboxamide]
HBsAg
  IC50: 2.5 µM
HBeAg
  IC50: 1.97 µM
[1]
  CC50 at 144 h: 92.1 µM

## O=C(NC1CC2(C1)CC(c1nc3cc(Cl)ccc3o1)C2)N1CCC2(COC2)C1 (stereo not drawn) [Example 67, N-[6-(5-chloro-1,3-benzoxazol-2-yl)spiro[3.3]heptan-2-yl]-2-oxa-7-azaspiro[3.4]octane-7-carboxamide]
HBsAg
  IC50: 3.95 µM
HBeAg
  IC50: 3.76 µM
[1]
  CC50 at 144 h: > 100 µM

## O=C(NC1CC2(C1)CC(c1nc3cc(Cl)ccc3o1)C2)N1CCS(=O)(=O)CC1 (stereo not drawn) [Example 68, N-[6-(5-chloro-1,3-benzoxazol-2-yl)spiro[3.3]heptan-2-yl]-1,1-dioxo-1,4-thiazinane-4-carboxamide]
HBsAg
  IC50: 6.65 µM
HBeAg
  IC50: 4.12 µM
[1]
  CC50 at 144 h: > 100 µM

## CS(=O)(=O)N1CCC(C(=O)NC2CC3(C2)CC(c2nc4cc(Cl)ccc4o2)C3)C1 (stereo not drawn) [Example 69, N-[6-(5-chloro-1,3-benzoxazol-2-yl)spiro[3.3]heptan-2-yl]-1-methylsulfonyl-pyrrolidine-3-carboxamide]
HBsAg
  IC50: 1.79 µM
HBeAg
  IC50: 1.31 µM
[1]
  CC50 at 144 h: > 100 µM

## CCS(=O)(=O)N1CCC(C(=O)NC2CC3(C2)CC(c2nc4cc(Cl)ccc4o2)C3)C1 (stereo not drawn) [Example 70, N-[6-(5-chloro-1,3-benzoxazol-2-yl)spiro[3.3]heptan-2-yl]-1-ethylsulfonyl-pyrrolidine-3-carboxamide]
HBsAg
  IC50: 5.42 µM
HBeAg
  IC50: 3.62 µM
[1]
  CC50 at 144 h: > 10 µM

## CCCS(=O)(=O)N1CCC(C(=O)NC2CC3(C2)CC(c2nc4cc(Cl)ccc4o2)C3)C1 (stereo not drawn) [Example 71, N-[6-(5-chloro-1,3-benzoxazol-2-yl)spiro[3.3]heptan-2-yl]-1-propylsulfonyl-pyrrolidine-3-carboxamide]
HBsAg
  IC50: 9.73 µM
HBeAg
  IC50: 9.43 µM
[1]
  CC50 at 144 h: > 10 µM

## O=C(NC1CC2(C1)CC(c1nc3cc(Cl)ccc3o1)C2)C1CCN(S(=O)(=O)C2CC2)C1 (stereo not drawn) [Example 72, N-[6-(5-chloro-1,3-benzoxazol-2-yl)spiro[3.3]heptan-2-yl]-1-cyclopropylsulfonyl-pyrrolidine-3-carboxamide]
HBsAg
  IC50: 9.56 µM
HBeAg
  IC50: 4.43 µM
[1]
  CC50 at 144 h: > 10 µM

## CC(=O)N1CCC(C(=O)NC2CC3(C2)CC(c2nc4cc(Cl)ccc4o2)C3)C1 (stereo not drawn) [Example 73, 1-acetyl-N-[6-(5-chloro-1,3-benzoxazol-2-yl)spiro[3.3]heptan-2-yl]pyrrolidine-3-carboxamide]
HBsAg
  IC50: 9.05 µM
HBeAg
  IC50: 6.39 µM
[1]
  CC50 at 144 h: > 10 µM

## O=C(NC1CC2(C1)CC(c1nc3cc(Cl)ccc3o1)C2)C1CCN(C(=O)C2CC2)C1 (stereo not drawn) [Example 74, N-[6-(5-chloro-1,3-benzoxazol-2-yl)spiro[3.3]heptan-2-yl]-1-(cyclopropanecarbonyl)pyrrolidine-3-carboxamide]
HBsAg
  IC50: 3.2 µM
HBeAg
  IC50: 2.17 µM
[1]
  CC50 at 144 h: > 10 µM

## O=C(NC1CC2(C1)CC(c1nc3cc(Cl)ccc3o1)C2)C1CCN(C(=O)C2CCC2)C1 (stereo not drawn) [Example 75, N-[6-(5-chloro-1,3-benzoxazol-2-yl)spiro[3.3]heptan-2-yl]-1-(cyclobutanecarbonyl)pyrrolidine-3-carboxamide]
HBsAg
  IC50: 9.58 µM
HBeAg
  IC50: 8.96 µM
[1]
  CC50 at 144 h: > 10 µM

## Cc1ccc(S(=O)(=O)N2CCC(CC(=O)NC3CC4(C3)CC(c3nc5cc(Cl)ccc5o3)C4)C2)cc1 (stereo not drawn) [Example 76, N-[6-(5-chloro-1,3-benzoxazol-2-yl)spiro[3.3]heptan-2-yl]-2-[1-(p-tolylsulfonyl)pyrrolidin-3-yl]acetamide]
HBsAg
  IC50: 2.89 µM
HBeAg
  IC50: 4 µM
[1]
  CC50 at 144 h: > 10 µM

## CS(=O)(=O)N1CC(CC(=O)NC2CC3(C2)CC(c2nc4cc(Cl)ccc4o2)C3)C1 (stereo not drawn) [Example 77, N-[6-(5-chloro-1,3-benzoxazol-2-yl)spiro[3.3]heptan-2-yl]-2-(1-methylsulfonylazetidin-3-yl)acetamide]
HBsAg
  IC50: 7.08 µM
HBeAg
  IC50: 4.35 µM
[1]
  CC50 at 144 h: > 10 µM

## Cc1ccc(S(=O)(=O)N2CC(CC(=O)NC3CC4(C3)CC(c3nc5cc(Cl)ccc5o3)C4)C2)cc1 (stereo not drawn) [Example 78, N-[6-(5-chloro-1,3-benzoxazol-2-yl)spiro[3.3]heptan-2-yl]-2-[1-(p-tolylsulfonyl)azetidin-3-yl]acetamide]
HBsAg
  IC50: 4.77 µM
HBeAg
  IC50: 4.37 µM
[1]
  CC50 at 144 h: > 10 µM

## CS(=O)(=O)N1CCC(CC(=O)NC2CC3(C2)CC(c2nc4cc(Cl)ccc4o2)C3)CC1 (stereo not drawn) [Example 79, N-[6-(5-chloro-1,3-benzoxazol-2-yl)spiro[3.3]heptan-2-yl]-2-(1-methylsulfonyl-4-piperidyl)acetamide]
HBsAg
  IC50: 6.72 µM
HBeAg
  IC50: 3.6 µM
[1]
  CC50 at 144 h: > 10 µM

## Cc1ccc(S(=O)(=O)N2CCC(CC(=O)NC3CC4(C3)CC(c3nc5cc(Cl)ccc5o3)C4)CC2)cc1 (stereo not drawn) [Example 80, N-[6-(5-chloro-1,3-benzoxazol-2-yl)spiro[3.3]heptan-2-yl]-2-[1-(p-tolylsulfonyl)-4-piperidyl]acetamide]
HBsAg
  IC50: 3.64 µM
HBeAg
  IC50: 3.93 µM
[1]
  CC50 at 144 h: > 10 µM

## O=C(CCCS(=O)(=O)NC(=O)C1CCC1)NC1CC2(C1)CC(c1nc3cc(Cl)ccc3o1)C2 (stereo not drawn) [Example 81, N-[4-[[6-(5-chloro-1,3-benzoxazol-2-yl)spiro[3.3]heptan-2-yl]amino]-4-oxo-butyl]sulfonylcyclobutanecarboxamide]
HBsAg
  IC50: 4.6 µM
HBeAg
  IC50: 6.06 µM
[1]
  CC50 at 144 h: > 10 µM

## O=C(NC1CC2(C1)CC(c1nc3cc(Cl)ccc3o1)C2)c1ccnc(S(=O)(=O)C2CC2)c1 (stereo not drawn) [Example 83, N-[6-(5-chloro-1,3-benzoxazol-2-yl)spiro[3.3]heptan-2-yl]-2-cyclopropylsulfonyl-pyridine-4-carboxamide]
HBsAg
  IC50: 0.14 µM
HBeAg
  IC50: 0.05 µM
[1]
  CC50 at 144 h: 90.5 µM

## O=C(NC1CC2(C1)CC(c1nc3cc(Cl)cnc3o1)C2)c1ccnc(S(=O)(=O)C2CC2)c1 (stereo not drawn) [Example 85, N-[6-(6-chlorooxazolo[5,4-b]pyridin-2-yl)spiro[3.3]heptan-2-yl]-2-cyclopropylsulfonyl-pyridine-4-carboxamide]
HBsAg
  IC50: 0.81 µM
HBeAg
  IC50: 0.73 µM
[1]
  CC50 at 144 h: > 10 µM

## N=S(=O)(c1cc(C(=O)NC2CC3(C2)CC(c2nc4cc(Cl)ccc4o2)C3)ccn1)C1CC1 (stereo not drawn) [Example 86, N-[6-(5-chloro-1,3-benzoxazol-2-yl)spiro[3.3]heptan-2-yl]-2-(cyclopropylsulfonimidoyl)pyridine-4-carboxamide]
HBsAg
  IC50: 0.64 µM
HBeAg
  IC50: 0.42 µM
[1]
  CC50 at 144 h: > 100 µM

## CS(=O)(=O)c1cc(C(=O)NC2CC3(C2)CC(c2nc4cc(Cl)cnc4o2)C3)ccn1 (stereo not drawn) [Example 88, N-[6-(6-chlorooxazolo[5,4-b]pyridin-2-yl)spiro[3.3]heptan-2-yl]-2-methylsulfonyl-pyridine-4-carboxamide]
HBsAg
  IC50: 2.42 µM
HBeAg
  IC50: 1.65 µM
[1]
  CC50 at 144 h: > 10 µM

## CS(=N)(=O)c1cc(C(=O)NC2CC3(C2)CC(c2nc4cc(Cl)ccc4o2)C3)ccn1 (stereo not drawn) [Example 89, N-[6-(5-chloro-1,3-benzoxazol-2-yl)spiro[3.3]heptan-2-yl]-2-(methylsulfonimidoyl)pyridine-4-carboxamide]
HBsAg
  IC50: 2.45 µM
HBeAg
  IC50: 0.86 µM
[1]
  CC50 at 144 h: > 100 µM

## CS(=O)(=O)c1cc(C(=O)NC2CC3(C2)CC(c2nc4cc(Cl)ccc4o2)C3)c(Cl)cn1 (stereo not drawn) [Example 90, 5-Chloro-N-[6-(5-chloro-1,3-benzoxazol-2-yl)spiro[3.3]heptan-2-yl]-2-methylsulfonyl-pyridine-4-carboxamide]
HBsAg
  IC50: 2.99 µM
HBeAg
  IC50: 2.26 µM
[1]
  CC50 at 144 h: > 10 µM

## O=C(NC1CC2(C1)CC(c1nc3cc(Cl)ccc3o1)C2)c1ccnc(N2CCS(=O)(=O)CC2)c1 (stereo not drawn) [Example 91, N-[6-(5-chloro-1,3-benzoxazol-2-yl)spiro[3.3]heptan-2-yl]-2-(1,1-dioxo-1,4-thiazinan-4-yl)pyridine-4-carboxamide]
HBsAg
  IC50: 1.1 µM
HBeAg
  IC50: 0.95 µM
[1]
  CC50 at 144 h: > 10 µM

## CN(C(=O)c1ccnc(S(C)(=O)=O)c1)C1CC2(CC(c3nc4cc(Cl)ccc4o3)C2)C1 (stereo not drawn) [Example 92, N-[6-(5-chloro-1,3-benzoxazol-2-yl)spiro[3.3]heptan-2-yl]-N-methyl-2-methylsulfonyl-pyridine-4-carboxamide]
HBsAg
  IC50: 3.05 µM
HBeAg
  IC50: 2.02 µM
[1]
  CC50 at 144 h: > 10 µM

## CCS(=O)(=O)c1cc(C(=O)N(C)C2CC3(CC(c4nc5cc(Cl)ccc5o4)C3)C2)ccn1 (stereo not drawn) [Example 93, N-[6-(5-chloro-1,3-benzoxazol-2-yl)spiro[3.3]heptan-2-yl]-2-ethylsulfonyl-N-methyl-pyridine-4-carboxamide]
HBsAg
  IC50: 3.08 µM
HBeAg
  IC50: 2.21 µM
[1]
  CC50 at 144 h: > 10 µM

## N=C(NO)c1cc(C(=O)NC2CC3(C2)CC(c2nc4cc(Cl)ccc4o2)C3)ccn1 (stereo not drawn) [Example 95, N-[6-(5-chloro-1,3-benzoxazol-2-yl)spiro[3.3]heptan-2-yl]-2-(N-hydroxycarbamimidoyl)pyridine-4-carboxamide]
HBsAg
  IC50: 8.25 µM
HBeAg
  IC50: 6.25 µM
[1]
  CC50 at 144 h: > 10 µM

## N=C(N)c1cc(C(=O)NC2CC3(C2)CC(c2nc4cc(Cl)ccc4o2)C3)ccn1 (stereo not drawn) [Example 96, 2-Carbamimidoyl-N-[6-(5-chloro-1,3-benzoxazol-2-yl)spiro[3.3]heptan-2-yl]pyridine-4-carboxamide]
HBsAg
  IC50: 7.6 µM
HBeAg
  IC50: 5.65 µM
[1]
  CC50 at 144 h: > 10 µM

## CNc1cc(C(=O)NC2CC3(C2)CC(c2nc4cc(Cl)ccc4o2)C3)ccn1 (stereo not drawn) [Example 97, N-[6-(5-chloro-1,3-benzoxazol-2-yl)spiro[3.3]heptan-2-yl]-2-(methylamino)pyridine-4-carboxamide]
HBsAg
  IC50: 7.05 µM
HBeAg
  IC50: 5.97 µM
[1]
  CC50 at 144 h: > 10 µM
